Data set [1] deals with 6-OHDA Parkinson's mouse model. As to the kind of experiment: 6-OHDA mouse model, PET/MRI imaging study with MCC7840 in drinking water. It is filed as in vivo. Conditions: 0.3 mg/ml in drinking water. As to the method: The Supplementary material contains detailed treatment regimens.
Blood was collected in ethylenediaminetetraacetic acid (EDTA) tubes, plasma aliquoted and stored at −80°C. IL-1β was quantified by ELISA (R&D Systems). Extended methods are in the Supplementary material.
On Days 24–28 post-surgery, mice underwent PET/MRI with ^18F-DPA-714 (Day 24), ^18F-FBCTT (Day 26) and ^18F-FDOPA (Day 28) to assess microglial activation, dopamine transporter function and presynaptic dopamine synthesis, respectively. Standardized uptake value ratios (SUVRs) were calculated as ipsilateral/contralateral striatum ratios. Detailed acquisition and analysis methods are provided in the Supplementary material.
The microglial IC50 and IC90 values are shown with dotted lines. (B) Schematic of the 6-OHDA imaging study [created in BioRender. […] (C) Amphetamine-induced ipsilateral rotations at Day 17. (D–F) Structures of ^18F-DPA-714, ^18F-FBCTT and ^18F-FDOPA. […] (H) Time-activity curves for ^18F-DPA-714 generated from dynamic imaging and presented as standard uptake value ratio from ipsilateral to contralateral hemispheres (standardized uptake value ratio, SUV-ratios). The 60 min imaging time point is shown on the right. (I) Representative brain PET/MRI images and (J) quantitative SUV-ratios for ^18F-FBCTT. […] (K) Representative brain PET/MRI images and (L) quantitative SUV-ratios for ^18F-FDOPA. […] (M–O) MRI blood–brain barrier leakage measurement of gadolinium T1 relaxation time values in ipsilateral (M) and contralateral (N) hemispheres and expressed as a ratio (O). (P) Plasma IL-1β concentrations in mice at Day 28. […] SUV-BW = standard uptake value corrected for body weight.
To perform PET imaging, the same mouse was intravenously administered three radiotracers at sequential time points: ^18F-DPA-714 at Day 24 to label TSPO and neuroinflammation (Fig. 5D), ^18F-FBCTT at Day 26 to label dopamine transporter (DAT) availability (Fig. 5E)[42] and ^18F-FDOPA at Day 28 to label dopamine uptake (Fig. 5F),[43] following 6-OHDA or saline injection. At each time point, mice were anaesthetized and imaged using PET/MRI to visualize radiotracer uptake in the brains of living mice (Fig. 5B).
DOPA and F-rac-DOPA. Chiral HPLC method: Daicel Crownpak CR+ (4.0 × 150mm x 5µm, Part No. 27714), Flow rate = 0.8ml/min with 100% (perchloric acid pH 2.0).
PET/MRI imaging in the 6-OHDA model
Twenty-four days post-surgery, mice from each experimental group were injected with a radiotracer every second day in a group of 3-4 mice per imaging week. Three different radiotracers were used on three different days. [18F]DPA-714 (24th day post-surgery) was used to target the translocator protein, TSPO, overexpressed in activated microglia during neuroinflammation. […]

Data set [2] is described as follows: Human plasma protein binding.
Experimental: (§1) LM – Liver microsome (half-life in minutes)
PPB – Plasma Protein Binding
(§2) PS – Plasma Stability (% remaining at 2 hours)
The target in data set [3] is T1, CYP1A2 (Homo sapiens, UniProt P05177).
T1 sequence (P05177 1-516): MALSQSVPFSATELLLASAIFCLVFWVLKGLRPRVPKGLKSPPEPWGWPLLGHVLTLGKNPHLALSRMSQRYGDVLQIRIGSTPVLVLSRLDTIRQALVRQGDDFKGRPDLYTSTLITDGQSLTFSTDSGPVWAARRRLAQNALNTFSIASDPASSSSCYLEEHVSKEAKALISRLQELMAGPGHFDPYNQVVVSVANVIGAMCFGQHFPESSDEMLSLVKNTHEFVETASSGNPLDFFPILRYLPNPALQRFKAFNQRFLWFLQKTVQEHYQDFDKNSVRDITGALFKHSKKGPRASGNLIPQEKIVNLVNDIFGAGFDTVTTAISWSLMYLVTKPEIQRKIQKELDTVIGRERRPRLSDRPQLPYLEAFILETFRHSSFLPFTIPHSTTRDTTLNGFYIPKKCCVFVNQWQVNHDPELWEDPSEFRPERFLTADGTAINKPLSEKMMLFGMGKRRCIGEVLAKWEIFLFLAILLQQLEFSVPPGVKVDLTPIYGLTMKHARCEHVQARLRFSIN
As to the kind of experiment: CYP1A2 inhibition.

A short description of data set [4]: Mouse plasma protein binding.
Experimental: as §1
PPB – Plasma Protein Binding
as §2
A short description of data set [5]: Human plasma stability. Conditions: % remaining at 2 hours.
Experimental: as §1
PPB – Plasma Protein Binding
as §2
Data set [6] is described as follows: Human liver microsome stability. Particulars: liver microsomes. (Liver microsomes are a subcellular fraction often used to study metabolism.)
Experimental: as §1
PPB – Plasma Protein Binding
as §2
Data set [7] concerns the target CYP2D6 (Homo sapiens, UniProt P10635). As to the kind of experiment: CYP2D6 inhibition.
Experimental: as §1
PPB – Plasma Protein Binding
as §2

Where only a bound is given, the exact number is not on record here.

CYP2D6, sequence (P10635 whole entry): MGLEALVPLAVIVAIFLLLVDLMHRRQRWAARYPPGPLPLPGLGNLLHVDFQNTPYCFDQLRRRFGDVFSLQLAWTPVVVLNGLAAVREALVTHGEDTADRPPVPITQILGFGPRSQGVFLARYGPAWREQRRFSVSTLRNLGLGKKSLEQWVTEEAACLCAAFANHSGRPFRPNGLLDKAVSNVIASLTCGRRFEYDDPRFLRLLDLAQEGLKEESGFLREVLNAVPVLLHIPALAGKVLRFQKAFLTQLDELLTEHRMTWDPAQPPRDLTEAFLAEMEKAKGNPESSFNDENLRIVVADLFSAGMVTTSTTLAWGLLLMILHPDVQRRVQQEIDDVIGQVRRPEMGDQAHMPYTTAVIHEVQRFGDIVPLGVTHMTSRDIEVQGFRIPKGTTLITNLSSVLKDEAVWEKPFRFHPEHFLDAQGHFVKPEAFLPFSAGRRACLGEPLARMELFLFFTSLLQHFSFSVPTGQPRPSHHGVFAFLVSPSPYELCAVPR

Take `CC(C)n1ccc(S(=O)(=O)NC(=O)Nc2c3c(cc4c2CCC4)CCC3)n1` [MCC7840]: the “Gadolinium T1 relaxation time decrease (blood-brain barrier leakage)” value in data set [1] is listed as “absent”. Also, the “Loss of 18F-FBCTT signal (DAT)” value in data set [1] (Day 26) was “significant, but not complete protection”. Further, in data set [1] (Day 28), the “6-OHDA-induced increase in plasma IL-1β” value is listed as “effectively suppressed”. Besides, the “Reduced ipsilateral 18F-FDOPA signal (dopamine uptake)” value in data set [1] (Day 28) is on record as “significantly protected”. Moreover, the fraction unbound in data set [2] is 0.003; in data set [4] (Mouse % PPB, plasma protein binding) it was 0.005; in data set [4] (Plasma protein binding, stated in text with mouse pharmacokinetics), below 0.01. Further, the IC50 in data set [3] is 19 µM; in data set [7], above 50 µM. Besides, the “Human % PS” value in data set [5] is reported as 100%. The same compound yielded a half-life in data set [6] above 2.42 h.

As usually defined, the fraction unbound is the share of the substance not bound to proteins or other matrix. A high value points to much free substance. Usually IC50 stands for the concentration that inhibits the measured activity by half. Lower therefore signals inhibition by little substance. The term half-life denotes the time in which the quantity being followed falls by half. Higher therefore signals slow decline.
